Measured values taken from patent publication US20090062294A1, “HETEROARYL-SUBSTITUTED UREA MODULATORS OF FATTY ACID AMIDE HYDROLASE” (priority 2007, published 2009).

Target: T1, FAAH (Homo sapiens, UniProt O00519)
T1 sequence (O00519 1-579): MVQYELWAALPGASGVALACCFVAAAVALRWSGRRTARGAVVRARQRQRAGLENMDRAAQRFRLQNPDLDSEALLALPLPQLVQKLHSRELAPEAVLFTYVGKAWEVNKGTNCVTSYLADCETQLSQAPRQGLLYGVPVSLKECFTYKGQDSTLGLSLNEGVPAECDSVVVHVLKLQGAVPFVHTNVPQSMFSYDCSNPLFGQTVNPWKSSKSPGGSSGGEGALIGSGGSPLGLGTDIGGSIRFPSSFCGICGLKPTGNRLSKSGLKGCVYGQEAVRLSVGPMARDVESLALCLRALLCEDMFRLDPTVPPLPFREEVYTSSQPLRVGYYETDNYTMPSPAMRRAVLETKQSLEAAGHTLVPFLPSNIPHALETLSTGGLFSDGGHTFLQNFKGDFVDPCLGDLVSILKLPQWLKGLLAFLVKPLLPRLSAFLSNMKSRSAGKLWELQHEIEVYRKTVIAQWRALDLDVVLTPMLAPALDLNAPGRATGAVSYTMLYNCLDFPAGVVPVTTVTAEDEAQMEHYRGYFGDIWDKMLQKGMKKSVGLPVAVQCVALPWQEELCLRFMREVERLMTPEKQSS
Test: Assay Method 1: FAAH assay, 3H-anandamide hydrolysis in homogenate of T84 cells or SK-N-MC cells transfected with human FAAH
Type: biochemical
Details: average of results, > = solubility limit or highest concentration tested
Outline: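 Hydrolysis of ^3H-anandamide (80 nM final, added last) was measured over 1 h at rt, using test compound with homogenate of T84 cells or human FAAH-transfected SK-N-MC cells. The homogenization buffer was 125 mM Tris, 1 mM EDTA, 0.02% Triton X-100, pH 9. Unbound labelled ethanolamine was passed through charcoal filters and scintillation-counted.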

IC50 [µM]	SMILES
0.006	O=C(Nc1noc2ccccc12)N1CCN(Cc2cccc(Oc3ccc(C(F)(F)F)cc3)c2)CC1 [Example 109, N-1,2-Benzisoxazol-3-yl-4-{3-[4-(trifluoromethyl)phenoxy]benzyl}-piperazine-1-carboxamide]
0.019	O=C(Nc1noc2cc(F)ccc12)N1CCN(Cc2cccc(Oc3ccc(Cl)cc3)c2)CC1 [Example 245, 4-[3-(4-Chloro-phenoxy)-benzyl]-piperazine-1-carboxylic acid (6-fluoro-benzo[d]isoxazol-3-yl)-amide]
